pIC50: −log10 of the molar value.
Experiments:
H22 [1] = assay: Cytotoxicity against mouse H22 cells assessed as growth inhibition by MTT assay; format: functional, cell-based
H22 [2] = assay: Cytotoxicity against mouse H22 cells assessed as growth inhibition by MTT assay relative to chrysin; format: functional
H22 [3] = assay: Cell cycle arrest in mouse H22 cells assessed as accumulation at S phase at 1 mmol/l after 24 hrs by propidium iodide staining based flow cytometry (reference value: 70.21 +/-0.38%); format: functional
H22 [4] = assay: Cell cycle arrest in mouse H22 cells assessed as accumulation at G2/M phase at 1 mmol/l after 24 hrs by propidium iodide staining based flow cytometry (reference value: 15.42 +/-0.33%); format: functional
H22 [5] = assay: Cell cycle arrest in mouse H22 cells assessed as accumulation at G1 phase at 1 mmol/l after 24 hrs by propidium iodide staining based flow cytometry (reference value: 14.38 +/-0.54%); format: functional

Compound	pIC50 (H22 [1])	growth inhibition (GI) (H22 [2]) [%]	Activity (H22 [3]) [%]	Activity (H22 [4]) [%]	Activity (H22 [5]) [%]
CCOC(=O)COc1cc(OCC(=O)OCC)c2c(=O)cc(-c3ccccc3)oc2c1	2.39	–	–	–	–
O=C(Oc1cc(O)c2c(=O)cc(-c3ccccc3)oc2c1)c1ccccc1	2.77	–	–	–	–
O=C(Oc1cc(OC(=O)c2ccccc2)c2c(=O)cc(-c3ccccc3)oc2c1)c1ccccc1	2.44	–	–	–	–
CCOC(=O)COc1cc(OC(=O)c2ccccc2)cc2oc(-c3ccccc3)cc(=O)c12	2.49	–	–	–	–
O=C(O)COc1cc(O)cc2oc(-c3ccccc3)cc(=O)c12	2.61	–	–	–	–
CC(=O)Oc1cc(O)c2c(=O)cc(-c3ccccc3)oc2c1	2.37	–	–	–	–
CC(=O)Oc1cc(OC(C)=O)c2c(=O)cc(-c3ccccc3)oc2c1 [CHRYSIN DIACETATE]	3.85	91.56	57.44	36.34	6.22
O=c1cc(-c2ccccc2)oc2cc(O)cc(O)c12 [CHRYSIN]	2.78	–	69.91	17.13	12.97
O=C(O)COc1cc(OCC(=O)O)c2c(=O)cc(-c3ccccc3)oc2c1 [FLAVODIC ACID]	2.51	–	–	–	–

— ChEMBL document CHEMBL3120117, “Synthesis and antitumor activity evaluation of chrysin derivatives” (Eur J Med Chem, 2014)
